Assay results reported in ChEMBL document CHEMBL1129121, “Design, synthesis and binding affinities of novel non-peptide mimics of somatostatin/sandostatin” (Bioorg Med Chem Lett, 1996).

Target: Somatostatin receptor
Test: Compound was tested for its potency to displace 3-[125I]- - Tyr11-SRIF-14 from somatostatin receptor on membranes of rat cerebral cortex
Format: tissue-based

SMILES | IC50
NCCCCCCNC[C@H]1C(OCc2ccccc2)[C@H](OCc2ccccc2)[C@H](O)CN1CCc1c[nH]c2ccccc12 (stereo partly specified) | 12 µM
NCCCCCCNC[C@H]1[C@@H](OCc2ccccc2)C(OCc2ccccc2)[C@H](CO)N1CCc1c[nH]c2ccccc12 (stereo partly specified) | 14 µM
NCCCCCCNC[C@@H]1CN(CCc2c[nH]c3ccccc23)C[C@@H](O)[C@@H](OCc2ccccc2)[C@@H]1OCc1ccccc1 | 10 µM
NCCCCCCN[C@H]1CN(CCc2c[nH]c3ccccc23)[C@@H](CO)C(OCc2ccccc2)[C@@H]1OCc1ccccc1 (stereo partly specified) | 11 µM
NCCCCCCN1CC2[C@@H](OCc3ccccc3)[C@H](OCc3ccccc3)C1CN2CCc1c[nH]c2ccccc12 (stereo partly specified) | 15 µM
NCCCCCCN1CC2[C@@H](OCc3ccccc3)[C@H](OCc3ccccc3)[C@H](C1)N2CCc1c[nH]c2ccccc12 | 12 µM
